Data on one molecule can be found in ChEMBL document CHEMBL2021890, “A new class of prolylcarboxypeptidase inhibitors, part 1: discovery and evaluation” (Bioorg Med Chem Lett, 2012).

Data set [1] deals with Mus musculus. Put plainly: Ex-vivo inhibition of po dosed mouse PrCP in the absence of plasma by FRET analysis. The class given is functional, organism-based.
Data set [2] concerns the target Mus musculus. As to the kind of experiment: Ex-vivo inhibition of PrCP in heat inactivated 25% plasma of po dosed mouse by FRET analysis. The class given is functional, organism-based.
In data set [3] the target is Mus musculus. Put plainly: Ex-vivo inhibition of PrCP in heat inactivated 100% plasma of po dosed mouse by FRET analysis. The class given is functional, organism-based.
Data set [4] has as its system Mus musculus. As to the kind of experiment: Plasma shift, ratio of Ki for PrCP in heat inactivated 100% plasma of po dosed mouse to Ki for po dosed mouse PrCP in the absence of plasma. Type of data set: functional.
Data set [5] can be described thus: Drug uptake in C57 mouse plasma at 100 mg/kg, po after 20 hrs by LC/MS analysis. Further details: dose 100 mg/kg, route oral. Type of data set: ADME, organism-based.
The nature of data set [6]: Drug uptake in C57 mouse brain at 100 mg/kg, po after 20 hrs by LC/MS analysis. The class given is ADME, organism-based. The arrangement: dose 100 mg/kg, route oral. The settings on record: read-out: Drug uptake.
Data set [7] can be described thus: Ratio of drug level in brain to plasma in C57 mouse at 100 mg/kg, po after 20 hrs by LC/MS analysis. The settings on record: read-out: BPR. Further details: dose 100 mg/kg, route oral. The class given is ADME, organism-based.
The test system of data set [8] is Mus musculus. Put plainly: Ex-vivo inhibition of PrCP in heat inactivated 100% plasma of C57 mouse assessed as target engagement at 100 mg/kg, po after 20 hrs by FRET analysis. Type of data set: functional.
Data set [9] relates to Mus musculus. Put plainly: Ex-vivo inhibition of PrCP in heat inactivated 100% plasma of C57 mouse assessed as target engagement at 100 mg/kg, po after 20 hrs calculated as [cmpd]plasma/([cmpd]plasma + Ki (heat inactivated plasma))x100. The class given is functional.
A short description of data set [10]: Apparent permeability across pig LLC-PK1 cells at 5 uM. The class given is ADME, cell-based, Sus scrofa.
A short description of data set [11]: Ratio of apparent permeability from basolateral to apical side over apical to basolateral side in […] LLC cells expressing human MDR1 at 5 uM. Type of data set: ADME, cell-based.
A short description of data set [12]: Ratio of apparent permeability from basolateral to apical side over apical to basolateral side in […] LLC cells expressing […] MDR1a at 5 uM. Type of data set: ADME, cell-based.

Structures are written as SMILES.

In general, inhibition in vivo refers to how much of the control response was suppressed. As usually defined, the Papp is the rate of passage across a membrane or cell layer, normalised by area and donor concentration. Take `C[C@@H](c1ccc(-c2ccccc2)cc1)[C@H](NC(=O)C(C)(C)N)C(=O)N1CCC[C@H]1c1nc2cc(Cl)c(Cl)cc2[nH]1`: the Ki worked out at 0.7 nM on Mus musculus [1], 4.6 nM on Mus musculus [2] and 16.3 nM at Mus musculus [3]. Also, the “Ratio Ki” value in the data set on Mus musculus [4] stood at 23.3. The concentration at 20 h in data set [5] was 3120 nM; in [6] it was 757 nM. Also, the Kp at 20 h in [7] worked out at 0.24. Moreover, the inhibition in vivo at 100 mg/kg in the data set on Mus musculus [8] is 97.2%; in the data set on Mus musculus [9], 99.5%. Further, the Papp at 5 µM in [10] was 2.3 ×10⁻⁶ cm/s. Further, the figures for the Ratio in data set [11] and in data set [12] were 8 and 4.2, respectively.
